{
  "source": "patent US12178825B2",
  "about": "“Method and compositions for forming a copper-containing complex and uses thereof” (COLD SPRING HARBOR LABORATORY, priority 2017, dated 2024)",
  "key": {"[1]": {"system": "MDA-MB-231 cells", "assay": "Cell survival", "assay_type": "cell-based", "procedure": "The MTT assay was used to evaluate cell survival in the absence and presence of different compounds. The thiazolyl blue tetrazolium bromide (MTT) was dissolved in phosphate buffered saline (PBS) at a concentration of 5 mg/ml, filtered, and stored at 4° C. About 10,000 cells were seeded into a 96-well plate and cultured in growth medium containing serum. After 24 hours, cells were treated with the indicated concentrations of DPM-1001 or DPM-1003 (0-100 uM) for 2 hrs. Following which 20 μl MTT was added into each well. An ELISA plate reader (Biotek, Winooski, Vermont, USA) was used to measure the optical density at 490 nm.\nMDA-MB-231 cells (1×10^5) were seeded in 6 cm plates in growth medium. The cells were untreated or treated with DPM-1001 (0.5, 1, 2 and 5 μM), DPM-1003 (0.5, 1, 2 and 5 μM) or TTM (25, 50, 100 μM) for 1 h. Following which, media was gently aspirated and cells were washed with PBS. To each plate 0.5 ml of crystal violet (0.5%) was added and incubated in dark for 10 minutes at room temperature. The staining solution was removed and plates were washed with PBS (three times). The cells stained with the dye were imaged."}, "[2]": {"system": "fibroblasts derived from Wilson's disease patients", "assay": "Copper-induced toxicity in Wilson's disease patient-derived fibroblasts", "assay_type": "cell-based", "procedure": "HepG2 cells purchased from ATCC were cultured in RPMI media containing 10% FBS, 5% CO2 at 37 C. Control (AG09319) and Wilson's disease patient-derived fibroblasts (GM00032, GM00033, GM05257, GM12158, GM05798 and GM11778) were obtained from Coriell Biorepository and cultured in DMEM, 10% FBS, 5% CO2 at 37° C.\nFor cell survival assays, 10,000 cells were seeded in a 96 well plate and cultured until fully confluent (90%). To these cells, ATP7B siRNAs or scrambled siRNA (negative control) purchased from Qiagen and Santa Cruz Biotechnology were transfected. Lipofectamine RNAiMAX reagent (Thermofischer) and siRNAs were diluted into a final volume of 100 μl in Opti-MEM (Gibco). The mixture was incubated at room temperature for 30 min, following which 800 μl of Opti-MEM was added to the mixture. The above transfection solution was overlaid onto cells at a final concentration of 5 nM siRNA. Transfection of HepG2 cells with scrambled siRNA served as negative control. Twelve hours after the transfection, complete media was added to each well. Following which, knockdown efficiency was checked (24 hours later) and cells were exposed to varying concentration of copper (0-1 mM) for 12 h and cell viability was determined using the MTT assay as previously described (37). […]"}, "[3]": {"system": "MDA-MB-231 cells", "assay": "MDA-MB-231 orthotopic xenograft", "assay_type": "in vivo, SCID-beige mice", "conditions": "mice with TNBC xenograft, 5 mg/kg intraperitoneally every day", "procedure": "MDA-MB-231 cells (2×10^6) were injected orthotopically into mammary fat pads of SCID-beige mice (Tectonic lab) in 15 μl of a 1:1 mixture with DMEM and growth factor-reduced Matrigel (BD Biosciences). The animals were randomly assigned to three groups to receive saline (control), DPM-1001 (5 mg/kg) or DPM-1003 (5 mg/kg) intraperitoneally everyday once the tumors reached about 200 mm^3. Tumor growth was monitored every third day and volume in mm^3 was measured three times weekly by palpation using the formula: volume=width^2×length/2. Once the tumor volume reached above 500 mm^3 in saline treated mice, the study was terminated. Tumors from all mice were removed for biochemical analysis."}, "[4]": {"system": "metallothionein", "assay": "Metallothionein quantitation in liver and brain", "assay_type": "in vivo, mouse", "conditions": "TX mice", "procedure": "Tissue samples (100 mg liver or 25 mg brain) were rinsed in PBS to remove excess blood and homogenized using a dounce homogenizer on ice (PBS, 1% tween). The samples were centrifuged at 5000×g for 5 minutes and the supernatant was collected. Total protein in the supernatant was measured using Bradford reagent and an equal amount of each sample (based on protein concentration) was used to measure metallothionein levels. Mouse metallothionein Elisa kit was purchased from Lifespan Biosciences, Inc and the assay was performed according to the users manual."}, "[5]": {"assay": "Glucose tolerance and insulin tolerance tests", "assay_type": "in vivo, C57Bl6/J mice", "conditions": "HFD-fed mice, orally or intraperitoneally", "procedure": "All protocols were approved by the Institutional Animal Use and Care Committee of Cold Spring Harbor laboratory. 10 week-old male mice fed chow diet or high-fat diet (D12492) were acclimatized for 10 days under standard conditions before experiments. Mice were injected intraperitoneally (i.p.) once daily with vehicle, 5 mg/kg of DPM-1001 intraperitoneally or orally for 50 days. Mice were euthanized after 6 h of fasting, and serum samples were collected to measure the metabolic parameters and tissue samples were collected for studying changes in signaling.\nGlucose in tail blood was measured using a glucometer (One-Touch Basic; Lifescan, CA). For glucose tolerance tests (GTTs), mice were fasted for 10 hours and then injected 20% D-glucose (2 mg/g body weight) and the blood glucose was monitored immediately before and at 15, 30, 60 and 120 mins following the injection. For insulin tolerance tests (ITTs), 4-h fasted animals were given insulin (0.75 mU/g) and blood glucose was measured immediately before and at 30, 60 and 120 minutes postinjection. Statistical analysis was performed using ANOVA for both GTT and ITT."}, "[6]": {"target": "T1, PTP1B1-394 (Homo sapiens, UniProt P18031)", "T1 construct": "elution profile of PTP1B1-394 in the absence (circles) and presence (triangles) of DPM-1001; His-tag; made in house; host or cells: Escherichia coli BL21 (DE3)-RIL", "T1 sequence (P18031 1-394)": "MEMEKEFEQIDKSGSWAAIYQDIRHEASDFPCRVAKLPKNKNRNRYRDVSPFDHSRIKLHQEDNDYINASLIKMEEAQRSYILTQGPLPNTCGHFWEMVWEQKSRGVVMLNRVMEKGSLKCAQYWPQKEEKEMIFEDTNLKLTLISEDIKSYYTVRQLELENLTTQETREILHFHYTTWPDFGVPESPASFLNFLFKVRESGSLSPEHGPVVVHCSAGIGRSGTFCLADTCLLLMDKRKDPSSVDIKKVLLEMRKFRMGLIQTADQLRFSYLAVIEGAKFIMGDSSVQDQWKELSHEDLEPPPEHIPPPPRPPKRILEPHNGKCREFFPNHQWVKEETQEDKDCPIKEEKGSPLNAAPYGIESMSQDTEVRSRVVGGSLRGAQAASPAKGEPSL", "assay": "Gel filtration for aggregation of PTP1B", "conditions": "gel filtration elution profile", "procedure": "PTP1B (5 μM) was incubated with 10 μM MSI1436 in a final volume of 200 μl buffer (50 mM HEPES, pH 7.0, 100 mM NaCl, 0.2 mM EDTA, 2 mM DTT) at 4° C. The reaction mixture was then subjected to gel filtration on a Superdex 200 column (HR30/10; Pharmacia Biotech Inc.). Prior to loading the MSI1436-saturated protein sample, the column was equilibrated with 50 mM HEPES, pH 7.0, 100 mM NaCl, 0.2 mM EDTA and 2 mM DTT. The void volume (Vo) and total volume (Vt) were measured using blue dextran and Coomassie blue dye, respectively. Fractions of 0.5 ml were collected, and the protein concentration in each sample was determined by Bradford assay or by recording the UV absorption spectrum at 280 nm."}},
  "note": "“Also recorded” adds a separate entry of the source.",
  "data": [
    {"smiles": "COC(=O)CCC(C)C1CCC2C3C(O)CC4CC(NCCCCNCc5ccccn5)CCC4(C)C3CCC12C", "note": "(stereo not shown) [DPM-1001]", "values": [
      {"measurement": "survival of MDA-MB-231 cells", "setting": "[1]", "value": "inhibiting survival; also recorded: inhibition of survival"},
      {"measurement": "protection from copper-induced cell death", "setting": "[2]", "value": "prevents such cytotoxic effects; also recorded: inhibited copper-induced cell death"},
      {"measurement": "tumor volume / tumor size", "setting": "[3]", "value": "reduced tumor volume; also recorded: inhibition of tumor size; also recorded: shrank the size of such tumors"},
      {"measurement": "metallothionein levels", "setting": "[4]", "value": "prevents elevated metallothionein expression in liver; also recorded: lowered metallothionein levels in the liver and the brain"},
      {"measurement": "glucose tolerance", "setting": "[5]; D-glucose 2 mg/g", "value": "lower rise in blood glucose levels; also recorded: improved glucose tolerance"},
      {"measurement": "insulin sensitivity (insulin tolerance test)", "setting": "[5]; insulin 0.75 mU/g", "value": "enhanced the effect of insulin to reduce blood glucose levels; also recorded: improved"},
      {"measurement": "aggregation of PTP1B", "setting": "[6]", "value": "did not induce aggregation"}
    ]}
  ]
}
